What was measured:
Type in all cases: cell-based
rat pancreatic islets = assay: Veratridine-induced glucagon secretion in rat pancreatic islets; conditions: veratridine 30 μM
human pancreatic islets = assay: Veratridine-induced glucagon secretion in human pancreatic islets; conditions: veratridine 30 μM
hNaV1.7 = hNaV1.7 (Homo sapiens, UniProt Q15858); assay: Voltage-dependent block (VDB) of hNaV1.7, QPatch whole-cell voltage-clamp in HEK-293 cells; conditions: 8 s prepulse to −60 mV; at a given concentration (not given)
hNaV1.7, sequence (Q15858 1-1977 isoform Q15858-3): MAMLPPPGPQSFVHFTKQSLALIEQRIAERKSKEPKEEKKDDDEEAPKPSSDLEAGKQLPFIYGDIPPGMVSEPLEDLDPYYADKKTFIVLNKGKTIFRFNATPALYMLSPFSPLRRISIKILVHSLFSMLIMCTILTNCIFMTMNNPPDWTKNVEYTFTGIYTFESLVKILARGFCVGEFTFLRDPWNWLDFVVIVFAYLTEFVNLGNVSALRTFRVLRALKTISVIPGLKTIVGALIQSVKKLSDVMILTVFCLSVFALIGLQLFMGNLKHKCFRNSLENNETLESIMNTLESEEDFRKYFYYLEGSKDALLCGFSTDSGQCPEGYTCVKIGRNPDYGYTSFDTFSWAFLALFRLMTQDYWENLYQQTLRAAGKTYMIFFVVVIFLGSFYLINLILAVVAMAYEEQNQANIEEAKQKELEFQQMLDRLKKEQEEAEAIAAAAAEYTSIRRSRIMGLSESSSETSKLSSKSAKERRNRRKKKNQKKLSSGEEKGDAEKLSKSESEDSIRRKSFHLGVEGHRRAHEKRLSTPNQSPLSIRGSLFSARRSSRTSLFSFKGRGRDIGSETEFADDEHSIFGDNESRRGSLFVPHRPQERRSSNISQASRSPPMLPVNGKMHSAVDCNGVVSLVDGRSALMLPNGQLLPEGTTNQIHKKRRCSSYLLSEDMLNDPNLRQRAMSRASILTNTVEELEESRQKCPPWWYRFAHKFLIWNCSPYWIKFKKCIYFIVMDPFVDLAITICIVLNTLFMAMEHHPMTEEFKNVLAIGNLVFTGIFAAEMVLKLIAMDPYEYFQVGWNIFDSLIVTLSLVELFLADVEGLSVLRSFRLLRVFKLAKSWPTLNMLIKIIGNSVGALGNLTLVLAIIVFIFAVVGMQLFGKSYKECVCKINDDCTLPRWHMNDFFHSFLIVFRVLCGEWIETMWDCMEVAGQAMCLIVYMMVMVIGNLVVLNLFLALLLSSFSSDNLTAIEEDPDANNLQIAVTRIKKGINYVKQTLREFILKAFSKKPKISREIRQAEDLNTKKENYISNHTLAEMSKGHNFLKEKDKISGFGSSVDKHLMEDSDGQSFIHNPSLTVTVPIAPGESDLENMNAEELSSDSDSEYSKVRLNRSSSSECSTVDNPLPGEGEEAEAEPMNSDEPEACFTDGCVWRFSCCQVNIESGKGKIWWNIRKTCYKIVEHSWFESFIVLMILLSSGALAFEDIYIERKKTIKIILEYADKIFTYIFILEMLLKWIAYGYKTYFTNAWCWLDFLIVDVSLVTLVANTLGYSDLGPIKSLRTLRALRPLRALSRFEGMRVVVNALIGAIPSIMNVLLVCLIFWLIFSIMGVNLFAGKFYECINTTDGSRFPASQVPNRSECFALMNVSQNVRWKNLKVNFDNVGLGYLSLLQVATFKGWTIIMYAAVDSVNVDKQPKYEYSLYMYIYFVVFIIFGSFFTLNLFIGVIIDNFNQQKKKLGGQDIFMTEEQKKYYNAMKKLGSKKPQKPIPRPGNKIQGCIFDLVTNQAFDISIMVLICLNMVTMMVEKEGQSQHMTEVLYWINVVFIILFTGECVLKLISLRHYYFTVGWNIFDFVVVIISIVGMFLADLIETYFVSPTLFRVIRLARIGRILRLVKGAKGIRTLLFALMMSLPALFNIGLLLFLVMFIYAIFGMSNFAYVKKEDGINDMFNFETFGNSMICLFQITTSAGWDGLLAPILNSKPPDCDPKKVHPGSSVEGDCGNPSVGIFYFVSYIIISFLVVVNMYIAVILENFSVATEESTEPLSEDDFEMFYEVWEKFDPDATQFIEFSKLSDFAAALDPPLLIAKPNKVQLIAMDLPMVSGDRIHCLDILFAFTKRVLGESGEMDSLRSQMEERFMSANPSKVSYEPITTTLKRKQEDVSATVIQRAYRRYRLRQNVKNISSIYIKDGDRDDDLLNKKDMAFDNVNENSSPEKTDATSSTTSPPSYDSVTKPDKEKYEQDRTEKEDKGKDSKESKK
hNaV1.7, sequence (Q07699 19-218 partner): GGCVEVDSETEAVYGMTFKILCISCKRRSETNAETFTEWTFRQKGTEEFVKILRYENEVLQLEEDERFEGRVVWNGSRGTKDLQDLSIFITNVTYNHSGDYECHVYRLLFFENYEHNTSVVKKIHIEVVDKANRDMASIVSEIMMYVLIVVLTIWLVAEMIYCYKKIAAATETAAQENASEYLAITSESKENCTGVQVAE
Procedure: Voltage-dependent block (VDB) of […] was determined by whole-cell voltage-clamp recordings of sodium current using a QPatch 16× automated electrophysiological system in HEK 293 cells overexpressing Nav 1.3 and Nav 1.7 sodium channels, respectively. VDB of peak current was measured using an 8 s conditioning prepulse (to -55 mV for NaV1.3 and to −60 mV for […]) followed by a test pulse (0 mV, 20 ms). Currents are normalized to the peak current recorded in the absence of drug and expressed as percent inhibition. […] Glucagon secretion in the cells was induced by the treatment with veratridine at 30 μM for 1 hour in Krebs-Ringer buffer containing 0.1% BSA. Percent inhibition of glucagon secretion by Na channel blockers was calculated from the reduction of veratridine-induced glucagon secretion in the absence of drug.
The cells were continuously maintained in a humidified, 5% CO2 atmosphere at 37° C. in MEM growth medium supplemented with 10% FBS, 2 mM L-glutamine, 100 U/mL penicillin, 100 μg/mL streptomycin, 0.6 mg/mL G418 and 2 μg/mL blastocydin.
Whole-cell voltage-clamp recordings were used to measure the activity of test compounds against hNaV1.3 and hNaV1.7. Sodium currents were recorded at room temperature using a QPatch 16× automated electrophysiological system (Sophion Bioscience, Copenhagen, Denmark). Cells were washed with PBS and then incubated with Detachin for 2 minutes at room temperature. Cells were then resuspended in growth media, pelleted by centrifugation and resuspended in CHO-S-SFM II serum free media supplemented with 100 U/mL penicillin, 100 μg/mL streptomycin and 10 mM HEPES. The cells were allowed to recover for 30 min at room temperature with constant stirring and then loaded into the QPatch cell holder.
The cells were loaded into primed single hole (2 MΩ) large QPlates and the whole-cell configuration was established using the default protocol. Cells were allowed to stabilize for 10 min after establishment of the whole-cell configuration before current was measured. […] All currents are low-pass Bessel filtered at 5 kHz and digitized at 50 kHz.
Specific voltage-clamp protocols assessing voltage-dependent block (VDB, also termed state-dependent block) are used. VDB of peak current was measured following an 8 s conditioning prepulse (to -55 mV for NaV1.3 and to −60 mV for NaV1.7) followed by a test pulse to 0 mV (20 ms). An interpulse (−120 mV, 10 ms) was used to recover non-drug bound channels from fast inactivation. The prepulse potential was determined by the steady-state inactivation curves for NaV1.3 and NaV1.7. […] Multiple applications of drug were used to ensure complete solution exchange and the cells were allowed to stabilize in the drug containing solution for two minutes. Currents were normalized to the peak current recorded in the absence of drug and expressed as percent inhibition.

SMILES	reduction of veratridine-induced glucagon secretion (in words) (rat pancreatic islets)	reduction of veratridine-induced glucagon secretion (human pancreatic islets; at 3 μM)	hNav1.7 VDB % Inhibition (hNaV1.7)	reduction of veratridine-induced glucagon secretion (human pancreatic islets; at 30 μM)
FC(F)(F)Oc1ccc(-c2ccc3nnc(C(F)(F)F)n3c2)cc1 [Compound A, 6-(4-(trifluoromethoxy)phenyl)-3-(trifluoromethyl)-[1,2,4]triazolo[4,3-α]pyridine]	concentration-dependently reduced	58±7%	87.17%	
COc1ccccc1OCC(O)CN1CCN(CC(=O)Nc2c(C)cccc2C)CC1 (racemic) [Ranolazine, ±-N-(2,6-dimethylphenyl)-4-[2-hydroxy-3-(2-methoxyphenoxy)-propyl]-1-piperazineacetamide]	concentration-dependently reduced		17.23%	36±9%

From patent US20140221286A1, “SODIUM CHANNEL BLOCKERS REDUCE GLUCAGON SECRETION” (Gilead Sciences, Inc., priority 2011, published 2014)
